Data published in patent US20150250172A1, “USE OF ANTHRANILAMIDE COMPOUNDS IN SOIL AND SEED TREATMENT APPLICATION METHODS” (BASF SE, priority 2012, published 2015).

Assays:
[1] = tested on: Western Corn Rootworm (Diabrotica virgifera virgifera); test: whole plant or invertebrate; assay type: in vivo; conditions: 72 h, 50 ppm a.i./soil (w/w), second-instar larvae, 3 days after infestation, read-out: mortality in comparison with untreated controls
[2] = tested on: Black Cutworm (Agrotis ipsilon); test: whole plant or invertebrate; assay type: in vivo; conditions: 72 h, 5 ppm a.i./soil (w/w), second-instar larvae, 3 days after infestation, read-out: mortality in comparison with untreated controls
[3] = tested on: western corn rootworm (Chrysomelidae: Diabrotica virgifera virgifera); test: Plant emergence, shoot height and root mass, corn seed treatment against western corn rootworm (B.2.2); assay type: in vivo; conditions: for % Control (Based on root mass relative to infested and uninfested control) / % Control (Based on shoot height relative to infested and uninfested control) / Mean Root Mass / Mean Shoot Height: 7 days after infestation
Description: B.2.2 Plant Emergence, Shoot Height and Root Mass in Treatment Against Western Corn Rootworm (Chrysomelidae: Diabrotica virgifera virgifera). The compounds according to the invention, in formulated form, and other diamide compounds (chlorantraniliprole: Altacor® and Coragen®) were tested for activity against western corn rootworm. Pots were filled with soil mixture (1:1 loamy sand:sand) and watered prior to treatment and planting. Formulations were diluted in distilled water and then applied to 20 g corn seed in a volume of 188 μl in a Hege 11 liquid seed treater and spun for 30 s. One seed was planted per pot 1-3 days after treatment. Five replicates (pots) were prepared for each treatment. Pots were arranged in a randomized complete block design in the greenhouse and top watered daily. At 5-6 days after planting (DAP), 12 western corn rootworm larvae (2nd instar) were infested in each pot. After infestation, pots were maintained in a growth chamber (26° C., 10 hours light:14 hours dark) and bottom-watered as needed. Plant emergence and shoot phytotoxicity were evaluated 5 DAP. Shoot height and fresh root mass were evaluated 7 days after infestation (DAI).

[4] = tested on: seedcorn maggot (Anthomyiidae: Delia platura); test: Root length of cucumber in treatment against seedcorn maggot (B.2.1); conditions: 9 days after treatment, 7 days after infestation; for % Control (Relative to infested and uninfested solvent blank): cucumber root length; for Mean Root Length: cucumber
[5] = Table EXP-B.2.2-1, 0.5 g ai/kg seed, 13 days after planting
[6] = Table EXP-B.2.2-1, 1.0 g ai/kg seed, 13 days after planting
[7] = Table EXP-B.2.2-1, corn seed treatment, 0.5 g ai/kg seed
[8] = Table EXP-B.2.2-1, corn seed treatment, 1.0 g ai/kg seed
[9] = Table EXP-B.2.2-2, 0.5 g ai/kg seed, 12 days after planting
[10] = Table EXP-B.2.2-2, 1.0 g ai/kg seed, 12 days after planting
[11] = Table EXP-B.2.2-2, corn seed treatment, 0.5 g ai/kg seed
[12] = Table EXP-B.2.2-2, corn seed treatment, 1.0 g ai/kg seed
[13] = Table EXP-B.2.2-2, 1.5 g ai/kg seed, 12 days after planting

SMILES | mortality at 50 ppm [1] | mortality at 5 ppm [2] | % Control (Based on root mass relative to infested and uninfested control) [3, 5] | % Control (Based on shoot height relative to infested and uninfested control) [3, 5] | Mean Root Mass [3, 5] | Mean Shoot Height [3, 5] | % Control (Based on root mass relative to infested and uninfested control) [3, 6] | % Control (Based on shoot height relative to infested and uninfested control) [3, 6] | Mean Root Mass [3, 6] | Mean Shoot Height [3, 6] | Plant Emergence (%) 5 days after planting [3, 7] | Plant Emergence (%) 5 days after planting [3, 8] | % Control (Based on root mass relative to infested and uninfested control) [3, 9] | % Control (Based on shoot height relative to infested and uninfested control) [3, 9] | Mean Root Mass [3, 9] | Mean Shoot Height [3, 9] | % Control (Based on root mass relative to infested and uninfested control) [3, 10] | Plant Emergence (%) 5 days after planting [3, 11] | % Control (Relative to infested and uninfested solvent blank) ([4]; rate 1 ppm) | Mean Root Length ([4]; rate 1 ppm) | further results
CCS(CC)=NC(=O)c1cc(Cl)cc(C)c1NC(=O)c1cc(C(F)(F)F)nn1-c1ncccc1Cl [Compound I-11, 2-(3-chloro-2-pyridyl)-N-[2-methyl-4-chloro-6-[(diethyl-λ^4-sulfanylidene)carbamoyl]phenyl]-5-(trifluoromethyl)pyrazole-3-carboxamide] | > 70% | > 70% | 100% | 36% | 0.680 g | 26.7 cm | 100% | 100% | 0.678 g | 33.8 cm | 100% | 100% | 12% | 49% | 0.490 g | 27.3 cm | 48% | 100% |  |  | % Control (Based on shoot height relative to infested and uninfested control) [3, 10]: 100%; Mean Root Mass [3, 10]: 0.631 g; Mean Shoot Height [3, 10]: 33.8 cm; Plant Emergence (%) 5 days after planting [3, 12]: 100%
CCS(CC)=NC(=O)c1cc(Cl)cc(Cl)c1NC(=O)c1cc(C(F)(F)F)nn1-c1ncccc1Cl [Compound I-16, 2-(3-chloro-2-pyridyl)-N-[2,4-dichloro-6-[(diethyl-λ^4-sulfanylidene)carbamoyl]phenyl]-5-(trifluoromethyl)pyrazole-3-carboxamide] | > 70% | > 70% | 37% | 76% | 0.541 g | 30.2 cm | 40% | 58% | 0.547 g | 28.6 cm | 100% | 100% | 38% | 100% | 0.590 g | 35.3 cm | 68% | 100% | 100% | 11.0 cm | % Control (Based on shoot height relative to infested and uninfested control) [3, 10]: 83%; Mean Root Mass [3, 10]: 0.705 g; Mean Shoot Height [3, 10]: 31.2 cm; Plant Emergence (%) 5 days after planting [3, 12]: 100%
CNC(=O)c1cc(C#N)cc(C)c1NC(=O)c1cc(Br)nn1-c1ncccc1Cl [cyantraniliprole] |  |  |  |  |  |  |  |  |  |  |  |  |  |  |  |  |  |  | 19% | 7.1 cm | % Control (Relative to infested and uninfested solvent blank) ([4]; rate 10 ppm): 93%; Mean Root Length ([4]; rate 10 ppm): 10.3 cm
CC(C)S(=NC(=O)c1cc(Cl)cc(Cl)c1NC(=O)c1cc(C(F)(F)F)nn1-c1ncccc1Cl)C(C)C [Compound I-26, 2-(3-chloro-2-pyridyl)-N-[2,4-dichloro-6-[(bis-2-propyl-λ^4-sulfanylidene)carbamoyl]phenyl]-5-(trifluoromethyl)pyrazole-3-carboxamide] | > 70% | > 70% |  |  |  |  |  |  |  |  |  |  |  |  |  |  |  |  |  |  | 
Cc1cc(Cl)cc(C(=O)N=S(C(C)C)C(C)C)c1NC(=O)c1cc(C(F)(F)F)nn1-c1ncccc1Cl [Compound I-21, 2-(3-chloro-2-pyridyl)-N-[2-methyl-4-chloro-6-[(bis-2-propyl-λ^4-sulfanylidene)carbamoyl]phenyl]-5-(trifluoromethyl)pyrazole-3-carboxamide] | > 70% | > 70% | 100% | 49% | 0.688 g | 27.8 cm | 100% | 69% | 0.701 g | 29.6 cm | 100% | 100% | 33% | 86% | 0.570 g | 31.6 cm |  | 100% |  |  | % Control (Based on root mass relative to infested and uninfested control) [3, 13]: 40%; % Control (Based on shoot height relative to infested and uninfested control) [3, 13]: 83%; Mean Root Mass [3, 13]: 0.598 g; Mean Shoot Height [3, 13]: 31.2 cm; Plant Emergence (%) 5 days after planting ([3]; Table EXP-B.2.2-2, corn seed treatment, 1.5 g ai/kg seed): 100%
CNC(=O)c1cc(Cl)cc(C)c1NC(=O)c1cc(Br)nn1-c1ncccc1Cl [chlorantraniliprole] |  |  |  |  |  |  |  |  |  |  |  |  |  |  |  |  |  |  | 49% | 8.4 cm | % Control (Relative to infested and uninfested solvent blank) ([4]; rate 10 ppm): 63%; Mean Root Length ([4]; rate 10 ppm): 9.0 cm
